In patent US6143769A, “Phenylacetic acid benzylamides” (Karl Thomae GmbH, priority 1983, dated 2000):
Read-outs that look alike come from different tables or passages of the source.

Tests used:
blood sugar = test: Blood sugar-lowering effect of the enantiomers in fasted female rats (oral); type: in vivo
Description: The substances to be investigated were suspended in 1.5% methylcellulose immediately before the start of the test and administered into the oesophagus. […] Glucose was measured in the supernatant by the hexokinase method using an analytical photometer. The statistical evaluation was carried out using the Student's t-test with p=0.05 as the limit of significance. Table 1 which follows contains the statistically significant values as percentage deviations from the control: […]

rats = test: Acute toxicity of (S)-enantiomer, single oral dose 1000 mg/kg, rats; type: in vivo; details: 1000 mg/kg p.o.
glucose [1] = test: Study 3: whole blood glucose, single fasting test subject, crossover; type: in vivo, human
[2] = Study 3: plasma concentration of active substance, single test subject; type: in vivo, human
[3] = after administration of racemate
Description: (§1) More specifically, the studies which follow were carried out on healthy male volunteers in whom the levels of glucose and active substance in the course of time were determined:
(§2) In the interests of more precise clarification, study 5 was carried out (randomised, open, crossover). […] 2 hours after administration a standard breakfast (B) was eaten, 5 hours after administration a standard lunch (L) was eaten and 10 hours after administration a standard dinner (D) was eaten. Blood samples were taken at different times. The glucose concentrations were measured in the plasma as in study 1. […] The plasma concentrations of AG-EE 624 ZW were calculated as the difference between the two concentrations found:

clinical [4] = details: human, plasma, po
Description: as §1
(§3) 0.25 hours after oral administration a standard breakfast (B) was eaten, 5.5 hours after administration a standard lunch (L) was eaten and 10 hours after administration a standard evening meal (D) was eaten. Blood samples were taken at different times. The glucose concentrations were determined from whole blood according to study 1. The AG-EE 623 ZW concentrations in the plasma were determined by a stereospecific competitive enzyme immunoassay (ELISA) with a detection limit of 0.5 ng/ml.
(§4) The AG-EE 623 ZW-specific ELISA used is based on polyclonal rabbit antibodies directed against AG-EE 623 ZW covalently bound to human serum albumin. The cross reaction with AG-EE 624 ZW is less than 1:100. Microtitre immunoplates were coated with these antibodies and, after washing and blocking of the plates, incubated with standard or unknown plasma samples at 4° C. for one hour with shaking. Then AG-EE 623 ZW coupled to horse-radish peroxidase was added and incubated for a further 4 hours under the same conditions. 1,2-phenylenediamine was used as substrate for photometrically quantifying the bound enzyme-coupled molecules.

glucose [5] = test: Study 4: whole blood glucose, AG-EE 623 ZW spray-dried tablets; type: in vivo, human
From the text: Blood samples were taken at different times.

clinical [6] = details: human, plasma, 1 mg
Description: as §1, §2

[7] = for Maximum concentration: 2 mg tablet p.o.
Description: as §1, §3, §4

## CCOc1cc(CC(=O)N[C@@H](CC(C)C)c2ccccc2N2CCCCC2)ccc1C(=O)O [AG-EE 623 ZW, (S)(+)-2-ethoxy-4-[N-[1-(2-piperidino-phenyl)-3-methyl-1-butyl]aminocarbonylmethyl]-benzoic acid]
Blood sugar; 0.015 mg/kg p.o., 1 h
  Glucose, percentage deviation from control: -17 percentage deviation
Blood sugar; 0.015 mg/kg p.o., 2 h
  Glucose, percentage deviation from control: -36 percentage deviation
Blood sugar; 0.015 mg/kg p.o., 3 h
  Glucose, percentage deviation from control: -37 percentage deviation
Blood sugar; 0.015 mg/kg p.o., 4 h
  Glucose, percentage deviation from control: -32 percentage deviation
Blood sugar; 0.015 mg/kg p.o., 5 h
  Glucose, percentage deviation from control: -35 percentage deviation
Blood sugar; 0.015 mg/kg p.o., 6 h
  Glucose, percentage deviation from control: -35 percentage deviation
Blood sugar; rat
  Blood sugar-lowering effect (in words): effective enantiomer
Blood sugar; rat, 0.015 mg/kg p.o.
  Duration of effect: > 6 h
rats
  Toxicity: virtually non-toxic
rats; 5 male and 5 female rats, 14 days
  Deaths: no animals died
Glucose [1]; 2 mg
  Maximum lowering of blood glucose: -43%
  Onset of effect: 0.5 h
  Time of maximum blood sugar reduction: 1.5 h
Glucose [1]; 2 mg capsule, 0 h
  Glucose, deviation against t = 0: 0%
Glucose [1]; 2 mg, 0.50 h
  Glucose, deviation against t = 0: -10%
Glucose [1]; 2 mg, 0.75 h
  Glucose, deviation against t = 0: -14%
Glucose [1]; 2 mg, 1.00 h
  Glucose, deviation against t = 0: -18%
Glucose [1]; 2 mg, 1.25 h
  Glucose, deviation against t = 0: -29%
Glucose [1]; 2 mg, 1.50 h
  Glucose, deviation against t = 0: -43%
Glucose [1]; 2 mg, 1.75 h
  Glucose, deviation against t = 0: -40%
Glucose [1]; 2 mg, 2.00 h
  Glucose, deviation against t = 0: -33%
Glucose [1]; 2 mg, 2.50 h
  Glucose, deviation against t = 0: -33%
Glucose [1]; 2 mg, 3.00 h
  Glucose, deviation against t = 0: -31%
Glucose [1]; 2 mg, 4.00 h
  Glucose, deviation against t = 0: -20%
Glucose [1]; 2 mg, 5.00 h
  Glucose, deviation against t = 0: -22%
Glucose [1]; 2 mg, 6.00 h
  Glucose, deviation against t = 0: -28%
Glucose [1]; 2 mg, 7.00 h
  Glucose, deviation against t = 0: -22%
Glucose [1]; 2 mg, 8.00 h
  Glucose, deviation against t = 0: -26%
[2]; 2 mg
  Maximum level relative to level after same dose of AG-EE 388 ZW: about one third
[2]; 2 mg capsule, listed as 623
  Maximum concentration: 24 ng/mL
[2]; 2 mg, 1.25 h
  Active substance concentration: 0 ng/mL
[2]; 2 mg, 2.50 h
  Active substance concentration: 0 ng/mL
[2]; 2 mg, 3.00 h
  Active substance concentration: 0 ng/mL
[2]; 2 mg, 3.50 h
  Active substance concentration: 0 ng/mL
[2]; 2 mg, 4.00 h
  Active substance concentration: 0 ng/mL
[2]; 2 mg, 6.00 h
  Active substance concentration: 0 ng/mL
[2]; 2 mg, 7.00 h
  Active substance concentration: 0 ng/mL
[2]; human, plasma, po, 2 mg, 2 mg capsule, read-out: Maximum concentration
  Cmax: 22 to 24 ng/mL
[2]; human, plasma, po, 2 mg, 1.50 h
  concentration at 1.5 h: 22 ng/mL
[2]; human, plasma, po, 2 mg, 1.75 h
  concentration at 1.75 h: 24 ng/mL
[2]; human, plasma, po, 2 mg, 2.00 h
  concentration at 2 h: 7 ng/mL
[3]
  Elimination (comparison): eliminated more rapidly than the ineffective enantiomer, AG-EE 624 ZW
Clinical [4]
  Tmax: 30 min
Clinical [4]; 0.5 mg
  AUC(0-inf): 14.3 ± 8.6 ng·h/mL
  Cmax: 15 ± 8 ng/mL
  MRT: 54 ± 12 min
  Tmax: 36 ± 6 min
  concentration at 0.25 h: 8.4 ng/mL
  concentration at 0.5 h: 4.7 ng/mL
  concentration at 0.75 h: 1.6 ng/mL
  concentration at 1 h: 7 ng/mL
  concentration at 1.5 h: 2.6 ng/mL
  concentration at 2.09 h: 1.2 ng/mL
  concentration at 3 h: 0.3 ng/mL
  half-life: 30 ± 12 min
Clinical [4]; 1 mg
  concentration at 0.25 h: 14.5 ng/mL
  concentration at 0.5 h: 27.9 ng/mL
  concentration at 0.75 h: 24.2 ng/mL
  concentration at 1 h: 15.3 ng/mL
  concentration at 1.5 h: 7.8 ng/mL
  concentration at 2.09 h: 4.7 ng/mL
  concentration at 3 h: 1.4 ng/mL
Clinical [4]; 2 mg
  concentration at 0.25 h: 24.1 ng/mL
  concentration at 0.5 h: 50.4 ng/mL
  concentration at 0.75 h: 41.1 ng/mL
  concentration at 1 h: 29.9 ng/mL
  concentration at 1.5 h: 13.5 ng/mL
  concentration at 2.09 h: 8.8 ng/mL
  concentration at 3 h: 4.3 ng/mL
  concentration at 4 h: 1.5 ng/mL
  concentration at 5 h: 0.4 ng/mL
  concentration at 6 h: 0.2 ng/mL
Glucose [5]; 0.5 mg tablet, 0 h
  Glucose (mean): 5.21 mmol/L
Glucose [5]; 0.5 mg, 0.25 h (breakfast)
  Glucose (mean): 5.09 mmol/L
Glucose [5]; 0.5 mg, 0.50 h
  Glucose (mean): 5.01 mmol/L
Glucose [5]; 0.5 mg, 0.75 h
  Glucose (mean): 5.85 mmol/L
Glucose [5]; 0.5 mg, 1.00 h
  Glucose (mean): 5.88 mmol/L
Glucose [5]; 0.5 mg, 1.50 h
  Glucose (mean): 4.05 mmol/L
Glucose [5]; 0.5 mg, 2.09 h (so in the source)
  Glucose (mean): 3.50 mmol/L
Glucose [5]; 0.5 mg, 3.00 h
  Glucose (mean): 3.90 mmol/L
Glucose [5]; 0.5 mg, 4.00 h
  Glucose (mean): 4.08 mmol/L
Glucose [5]; 0.5 mg, 5.00 h
  Glucose (mean): 4.32 mmol/L
Glucose [5]; 0.5 mg, 6.00 h
  Glucose (mean): 6.63 mmol/L
Glucose [5]; 0.5 mg, 8.00 h
  Glucose (mean): 5.61 mmol/L
Glucose [5]; 0.5 mg, 10.00 h (dinner)
  Glucose (mean): 4.81 mmol/L
Glucose [5]; 0.5 mg, 24.00 h
  Glucose (mean): 4.82 mmol/L
Glucose [5]; 1 mg and 2 mg tablet
  Time of peak blood sugar lowering: 1.5 h
Glucose [5]; 1 mg tablet
  Duration of blood sugar lowering: up to 2 hours
  Start of blood sugar lowering: 1.0 h
Glucose [5]; 1 mg tablet, 0 h
  Glucose (mean): 4.62 mmol/L
Glucose [5]; 1 mg, 0.25 h (breakfast)
  Glucose (mean): 4.62 mmol/L
Glucose [5]; 1 mg, 0.50 h
  Glucose (mean): 4.57 mmol/L
Glucose [5]; 1 mg, 0.75 h
  Glucose (mean): 5.36 mmol/L
Glucose [5]; 1 mg, 1.00 h
  Glucose (mean): 4.72 mmol/L
Glucose [5]; 1 mg, 1.50 h
  Glucose (mean): 2.98 mmol/L
Glucose [5]; 1 mg, 2.09 h (so in the source)
  Glucose (mean): 3.20 mmol/L
Glucose [5]; 1 mg, 3.00 h
  Glucose (mean): 3.69 mmol/L
Glucose [5]; 1 mg, 4.00 h
  Glucose (mean): 4.05 mmol/L
Glucose [5]; 1 mg, 5.00 h
  Glucose (mean): 3.94 mmol/L
Glucose [5]; 1 mg, 6.00 h
  Glucose (mean): 6.48 mmol/L
Glucose [5]; 1 mg, 8.00 h
  Glucose (mean): 5.37 mmol/L
Glucose [5]; 1 mg, 10.00 h (dinner)
  Glucose (mean): 4.57 mmol/L
Glucose [5]; 1 mg, 24.00 h
  Glucose (mean): 4.69 mmol/L
Glucose [5]; 2 mg tablet
  Duration of blood sugar lowering: ≤ 5 h
  Start of blood sugar lowering: 0.75 h
Glucose [5]; 2 mg tablet, 0 h
  Glucose (mean): 4.67 mmol/L
Glucose [5]; 2 mg, 0.25 h (breakfast)
  Glucose (mean): 5.14 mmol/L
Glucose [5]; 2 mg, 0.50 h
  Glucose (mean): 4.38 mmol/L
Glucose [5]; 2 mg, 0.75 h
  Glucose (mean): 4.54 mmol/L
Glucose [5]; 2 mg, 1.00 h
  Glucose (mean): 4.27 mmol/L
Glucose [5]; 2 mg, 1.50 h
  Glucose (mean): 2.65 mmol/L
Glucose [5]; 2 mg, 2.09 h (so in the source)
  Glucose (mean): 2.74 mmol/L
Glucose [5]; 2 mg, 3.00 h
  Glucose (mean): 3.07 mmol/L
Glucose [5]; 2 mg, 4.00 h
  Glucose (mean): 3.64 mmol/L
Glucose [5]; 2 mg, 5.00 h
  Glucose (mean): 3.88 mmol/L
Glucose [5]; 2 mg, 6.00 h
  Glucose (mean): 6.47 mmol/L
Glucose [5]; 2 mg, 8.00 h
  Glucose (mean): 4.61 mmol/L
Glucose [5]; 2 mg, 10.00 h (dinner)
  Glucose (mean): 4.45 mmol/L
Glucose [5]; 2 mg, 24.00 h
  Glucose (mean): 4.77 mmol/L
Clinical [6]; iv
  MRT: 54 ± 36 min
  clearance: 443 ± 140 mL/min
Clinical [6]; po
  bioavailability: 76 ± 20%
[7]; 0.5 mg tablet, 0 h
  Concentration (mean): 0.0 ng/mL
[7]; 0.5 mg, 4.00 h
  Concentration (mean): 0.0 ng/mL
[7]; 0.5 mg, 5.00 h
  Concentration (mean): 0.0 ng/mL
[7]; 0.5 mg, 6.00 h
  Concentration (mean): 0.0 ng/mL
[7]; 0.5 mg, 8.00 h
  Concentration (mean): 0.0 ng/mL
[7]; 0.5 mg, 10.00 h
  Concentration (mean): 0.0 ng/mL
[7]; 0.5 mg, 24.00 h
  Concentration (mean): 0.0 ng/mL
[7]; 1 mg tablet
  Time at which plasma level is below detection limit: 3.0 h
[7]; 1 mg tablet, 0 h
  Concentration (mean): 0.0 ng/mL
[7]; 1 mg, 8.00 h
  Concentration (mean): 0.0 ng/mL
[7]; 1 mg, 10.00 h
  Concentration (mean): 0.0 ng/mL
[7]; 1 mg, 24.00 h
  Concentration (mean): 0.0 ng/mL
[7]; 2 mg tablet
  Time at which plasma level is below detection limit: 4.0 h
[7]
  Maximum concentration: 50.4 ± 26.3 ng/mL
[7]; listed as 623
  Maximum concentration: 50 ± 26 ng/mL
[7]; 2 mg tablet, 0 h
  Concentration (mean): 0.0 ng/mL
[7]; 2 mg, 8.00 h
  Concentration (mean): 0.0 ng/mL
[7]; 2 mg, 10.00 h
  Concentration (mean): 0.0 ng/mL
[7]; 2 mg, 24.00 h
  Concentration (mean): 0.0 ng/mL
[7]; versus AG-EE 388 ZW, identical dose
  Fall of plasma levels (comparison): fall more rapidly towards zero than the AG-EE 388 ZW levels
